Legend:
[1] = tested on: low FAR-expressing KB cells; assay: Cellular uptake/binding of dendrimers in low-FAR KB cells, flow cytometry; format: cell-based, human
Description: (§1) Cell culture and treatment.
(§2) Flow Cytometry and Confocal Microscopy. The standard fluorescence of the dendrimer solutions was quantified using a Beckman spectrofluorimeter. For flow cytometric analysis of the uptake of the targeted polymer, cells were trypsinized and suspended in PBS containing 0.1% bovine serum albumin (PBSB) and analyzed using a Becton Dickinson FACScan analyzer. The FL1-fluorescence of 10,000 cells was measured and the mean fluorescence of gated viable cells was quantified. Confocal microscopic analysis was performed in cells plated on a glass cover-slip, using a Carl Ziess confocal microscope. Fluorescence and differential interference contrast (DIC) images were collected simultaneously using an argon laser, using the appropriate filters for FITC.
(§3) The effect of free FA on the uptake of the dendrimers was tested in KB cells that express both high and low FAR. The binding of the conjugates to the low FAR-expressing KB cells was 30% of that of the high FAR-expressing cells for both the G5-FITC-FA and G5-FITC-FA-MTX (See, for e.g., FIG. 19, left panel). […] The binding and internalization of the dendrimers to KB cells was assessed by confocal microscopy. KB cells were incubated with 250 nM of the indicated dendrimers for 24 hours and confocal images were taken. Conjugates containing the targeting molecule FA internalized into KB cells within 24 h (See, e.g., FIG. 20).
Time course and dose dependent inhibition of cell growth.

[2] = tested on: KB cells; assay: Binding and internalization of dendrimers by confocal microscopy; format: cell-based, human; details: 250 nM, 24 hours, compared to control conjugates
Description: as §2, §3

[3] = tested on: KB cells; assay: Inhibition of cell growth by XTT assay; format: cell-based, human
Description: as §1
Evaluation of dendrimer cytotoxicity.
Because the binding of the conjugate to KB cells reaches maximal uptake within 1 h (Quintana et al, 2002. Pharmaceutical Research 19: 1310-1316.), the effect of the G5-FI-FA-MTX on cell growth was initially tested by pre-incubation of cells with the conjugate for 1 h, followed by incubation in a drug-free medium for 5 d. […] When the cells were pre-incubated with dendrimers for 4 h, there was a modest decrease of about 10% in cell growth as determined by XTT assay. The cytotoxicity measurements were therefore done by incubation with the dendrimer for a minimum of 24 h, a pre-incubation time period shown to induce significant cytotoxicity.
The inhibition of cell growth induced by the conjugates was also tested by XTT assay which is based on the conversion of XTT to formazan by the active mitochondria of live cells (See, e.g., Roehm et al, J Immunol Methods 142, 257 (1991)).
As free FA blocks the uptake of the dendrimers as well as rescues cells from MTX-induced cytotoxicity, the effect of pre-incubation of cells with excess FA on the anti-proliferative effect of G5-FITC-FA-MTX was tested. KB cells were exposed to different concentrations of the conjugate or free MTX for 24 h in the absence or presence of 50 μM FA. The incubation medium was removed, the cells were rinsed and incubated with fresh medium for 5 additional days in the absence of the drugs, and the XTT assay was performed (See, e.g., FIG. 24, □, ▪, represents cells treated with MTX; Δ, ▴, represents cells treated with G5-FITC-FA-MTX).
The anti-proliferative effect of the MTX-conjugates was compared to conjugates that lacked either the FA or the FITC molecule. KB cells were incubated with 30 nM of the conjugates (=150 nM effective MTX concentration) for 24 h and the incubation medium was removed. The cells were rinsed and incubated for an additional 5 d in fresh medium in the absence of the drugs, and the XTT assay was performed.

[4] = tested on: s.c. human KB xenografts; assay: Targeted drug delivery, tumor growth and survival in SCID mice with KB xenografts; format: in vivo, SCID CB-17 mice
Description: Recipient animal and tumor model.
Delivery of targeted nanoparticle therapeutic. Twice weekly, SCID mice with s.c. KB xenografts, starting on day 4 after tumor implantation, received via the tail vein an injection of either targeted or nontargeted conjugate containing methotrexate, a conjugate without methotrexate, free methotrexate, or saline as a control. The compounds were delivered in a 0.2 mL volume of saline per 20 g of mouse. The single dose of methotrexate delivered each time equaled 0.33 mg/kg. The higher doses of 1.67 and 3.33 mg/kg free methotrexate were also tested. The conjugates were delivered at equimolar concentration of methotrexate calculated based on the number of methotrexate molecules present in a nanoparticle. The conjugate without methotrexate was delivered at equimolar concentration of dendrimer. In the initial trial, six groups of mice with five mice in each group received up to 15 injections. In the follow-up trial, mice received up to 28 injections dependent on their survival. The body weights of the mice were monitored throughout the experiment as an indication of adverse effects of the drug. Histopathology of multiple organs was done at the termination of each trial and each time mouse had to be euthanized due to toxic effects or tumor burden. Tissues from lung, heart, liver, pancreas, spleen, kidney, and tumor were analyzed. Additionally, cells were isolated from tumors, stained with targeted fluorescein-labeled conjugate, and tested for the presence of folic acid receptors using flow cytometer.
Targeted drug delivery to tumor cells through the folate receptor. The efficacy of different doses of conjugates was tested on SCID CB-17 mice bearing s.c. human KB xenografts and was compared with equivalent and higher doses of free methotrexate. Mice were maintained on the folic acid-deficient diet for 3 weeks before injection of the KB tumor cells to achieve circulating levels of folic acid that approach those in human serum and to prevent down-regulation of folate receptors on tumor xenografts (See, Mathias et al., J Nucl Med 29, 1579 (1998)). Six groups of SCID mice with five mice in each group were injected s.c. on one flank with 5×10^6 KB cells in 0.2 mL PBS suspension. The highest total dose of G5-FI-FA-MTX therapeutic used equals 55.0 mg/kg and is equivalent to a 5.0 mg/kg total cumulative dose of free methotrexate (FIG. 29). The therapeutic dose of the conjugate was compared with three cumulative doses of free methotrexate equivalent to 33.3, 21.7, and 5.0 mg/kg accumulated in 10 to 15 injections based on mouse survival. Saline and the conjugate without methotrexate (G5-FI-FA) were used as controls.

## G5-(Ac)82-(FITC)5-(FA)5-MTX5 [G5-FITC-FA-MTX]
[1]
  binding to low FAR-expressing KB cells relative to high FAR-expressing cells: 30%
[1]; 50 μM FA, dendrimer 30 nM
  effect of free FA on uptake, low-FAR expressing cells: completely blocked
[2]
  cell morphology indicating cytotoxicity: less adherent and rounded up
[3]; 1, 2 or 3 days
  inhibition of cell growth, XTT: time-dependent cytotoxicity
[3]; pre-incubated 4 h, XTT assay
  decrease in cell growth: about 10%
[3]; pre-incubation 1 h, then drug-free medium 5 d
  growth-inhibitory effect: failed to show any growth-inhibitory effect
[4]; first trial, up to 15 injections, cumulative 5.0 mg/kg methotrexate equivalents or equimolar dendrimer
  effect on tumor growth: as equally effective as the second highest dose of free methotrexate
[4]; second 99-day trial
  survivors at the termination of the trial: two (of eight)
[4]; second 99-day trial, P<0.05
  tumor growth versus G5-FI-MTX, free methotrexate or saline: slower growth of tumors
